From US20250215030A1, “STAT MODULATORS AND USES THEREOF” (Recludix Pharma, Inc., priority 2022, published 2025)

Legend:
[1] = biological target: T1, Recombinant STAT6 protein (STAT6(W123-T658)) (Homo sapiens, UniProt P42226); assay: STAT6 Fluorescence Polarization (FP) Assay; assay type: binding; details: STAT6(W123-T658) 250 nM, probe 5-FAM-ApYKPFQDLI-NH2 2 nM, 45-minute incubation
T1 construct: STAT6(W123-T658)
T1 sequence (P42226 123-658): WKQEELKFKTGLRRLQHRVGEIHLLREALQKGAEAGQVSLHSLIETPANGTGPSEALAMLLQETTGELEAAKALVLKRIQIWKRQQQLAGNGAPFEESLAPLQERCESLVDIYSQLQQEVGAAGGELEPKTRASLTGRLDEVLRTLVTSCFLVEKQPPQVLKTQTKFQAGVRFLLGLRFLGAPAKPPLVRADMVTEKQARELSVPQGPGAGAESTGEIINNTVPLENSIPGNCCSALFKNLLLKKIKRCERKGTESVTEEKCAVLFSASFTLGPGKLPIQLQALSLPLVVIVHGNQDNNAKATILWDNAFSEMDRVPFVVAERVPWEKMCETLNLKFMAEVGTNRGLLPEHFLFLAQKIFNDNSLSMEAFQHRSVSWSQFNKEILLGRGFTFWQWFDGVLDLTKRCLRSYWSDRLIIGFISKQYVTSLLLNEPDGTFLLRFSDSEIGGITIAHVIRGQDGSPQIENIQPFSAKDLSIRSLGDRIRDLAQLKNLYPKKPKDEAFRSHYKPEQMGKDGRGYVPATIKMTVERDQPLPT
Method in brief: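 Competitive displacement of a fluorescent phosphotyrosine peptide (2 nM) from recombinant STAT6 W123-T658 (250 nM), 45 min at room temperature in 10 mM HEPES pH 7.4, 50 mM NaCl, 2 mM DTT. mP fitted against log compound for IC50, grouped A (≤300 nM) to D (>30 μM).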

[2] = biological target: T2, Recombinant STAT3 protein (STAT3(G127-I722)) (Homo sapiens, UniProt P40763); assay: STAT3 Fluorescence Polarization (FP) Assay; assay type: binding; details: STAT3(G127-I722) 25 nM, probe 5-FAM-GpYLPQTV-NH2 2 nM, 45-minute incubation
T2 construct: STAT3(G127-I722)
Method in brief: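 Serially diluted compounds (1% DMSO) were mixed with 2 nM fluorescent phosphotyrosine peptide and 25 nM STAT3 construct G127-I722, pH 7.4, incubated 45 min at room temperature. IC50 values from fitted polarization curves are reported as categories A (≤100 nM), B, C, D (>10 μM).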

T2 sequence (P40763 127-722, species assumed): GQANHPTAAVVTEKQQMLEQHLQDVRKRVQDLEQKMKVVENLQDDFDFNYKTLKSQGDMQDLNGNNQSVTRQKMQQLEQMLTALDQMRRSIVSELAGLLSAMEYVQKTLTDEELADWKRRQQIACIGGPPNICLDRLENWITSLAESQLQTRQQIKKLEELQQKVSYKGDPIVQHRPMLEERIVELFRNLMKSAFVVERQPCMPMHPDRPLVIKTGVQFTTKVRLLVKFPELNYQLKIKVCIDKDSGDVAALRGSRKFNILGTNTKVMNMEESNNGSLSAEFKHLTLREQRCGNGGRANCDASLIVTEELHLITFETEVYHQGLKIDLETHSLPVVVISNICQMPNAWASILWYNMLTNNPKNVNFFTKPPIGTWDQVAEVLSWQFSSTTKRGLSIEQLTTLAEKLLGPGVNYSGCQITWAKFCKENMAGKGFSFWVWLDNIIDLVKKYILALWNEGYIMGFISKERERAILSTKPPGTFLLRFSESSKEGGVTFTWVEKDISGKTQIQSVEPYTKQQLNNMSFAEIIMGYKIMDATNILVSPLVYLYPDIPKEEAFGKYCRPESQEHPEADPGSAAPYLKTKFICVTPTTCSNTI

Compound | IC50 [1] [nM] | IC50 [2] [nM]
O=C(N[C@H]1C[C@@H]2C[C@@H]2C[C@H]2CC[C@@H](C(=O)N[C@@H]3CCN(c4cn[nH]c4)C3)N2C1=O)c1cc2cc(C(F)(F)P(=O)(O)O)ccc2s1 [Compound 120, ((2-(((3S,6S,7aS,8aR,9aR)-3-(((R)-1-(1H-pyrazol-4-yl)pyrrolidin-3-yl)carbamoyl)-5-oxodecahydro-1H-cyclopropa[d]pyrrolo[1,2-a]azocin-6-yl)carbamoyl)benzo[b]thiophen-5-yl)difluoromethyl)phosphonic acid] | 300 to 3000 | 100 to 1000
O=C(NC1C[C@@H]2C[C@@H]2C[C@H]2CC[C@@H](C(=O)N3CC(C(=O)N4CCOCC4)C3)N2C1=O)c1cc2cc(CP(=O)(O)O)ccc2s1 (stereo partly drawn) [Compound 20, ((2-(((3S,7aS,8aR,9aR)-3-(3-(morpholine-4-carbonyl)azetidine-1-carbonyl)-5-oxodecahydro-1H-cyclopropa[d]pyrrolo[1,2-a]azocin-6-yl)carbamoyl)benzo[b]thiophen-5-yl)methyl)phosphonic acid] | > 30000 | 1000 to 10000
O=C(N[C@H]1C[C@@H]2C[C@@H]2C[C@H]2CC[C@@H](C(=O)N3CCN(C4CCOCC4)CC3)N2C1=O)c1cc2cc(C(F)(F)P(=O)(O)O)ccc2s1 [Compound 115, (difluoro(2-(((3S,6S,7aS,8aR,9aR)-5-ox0-3-(4-(tetrahydro-2H-pyran-4-yl)piperazine-1-carbonyl)decahydro-1H-cyclopropa[d]pyrrolo[1,2-a]azocin-6-yl)carbamoyl)benzo[b]thiophen-5-yl)methyl)phosphonic acid] | 300 to 3000 | 100 to 1000
N#C[C@H]1CN(C(=O)[C@@H]2CC[C@@H]3C[C@H]4C[C@H]4C[C@H](NC(=O)c4cc5cc(C(F)(F)P(=O)(O)O)ccc5s4)C(=O)N32)C[C@@]12C(=O)Nc1ccccc12 (single isomer, unassigned) [Compound 27] | 300 to 3000 | 100 to 1000
O=C(N[C@H]1C[C@@H]2C[C@@H]2C[C@H]2CC[C@@H](C(=O)N[C@H]3CN(c4nc[nH]n4)C[C@@H]3F)N2C1=O)c1cc2cc(C(F)P(=O)(O)O)ccc2s1 (stereo partly drawn) [Example 347, (fluoro(2-(((3S,6S,7aS,8aR,9aR)-3-(((3S,4S)-4-fluoro-1-(1H-1,2,4-triazol-3-yl)pyrrolidin-3-yl)carbamoyl)-5-oxodecahydro-1H-cyclopropa[d]pyrrolo[1,2-a]azocin-6-yl)carbamoyl)benzo[b]thiophen-5-yl)methyl)phosphonic acid] | 3000 to 30000 | 100 to 1000
O=C(N[C@H]1C[C@@H]2C[C@@H]2C[C@H]2CC[C@@H](C(=O)N3CC[C@H](C(=O)N4CCOCC4)C3)N2C1=O)c1cc2cc(C(F)(F)P(=O)(O)O)ccc2s1 (single isomer, unassigned) [Compound 99] | 3000 to 30000 | 100 to 1000
Cc1cccc(C2CN(C(=O)[C@@H]3CC[C@@H]4C[C@@H]5C[C@@H]5C[C@H](NC(=O)c5cc6cc(C(F)(F)P(=O)(O)O)ccc6s5)C(=O)N43)C2)c1 [Compound 68, (difluoro(2-(((3S,6S,7aR,8aS,9aR)-5-oxo-3-(3-(m-tolyl)azetidine-1-carbonyl)decahydro-1H-cyclopropa[d]pyrrolo[1,2-a]azocin-6-yl)carbamoyl)benzo[b]thiophen-5-yl)methyl)phosphonic acid] | 300 to 3000 | < 100

Further lines, results first:

IC50 [1] [nM] | IC50 [2] [nM] | Compound
3000 to 30000 | < 100 | CCc1ccncc1C1CN(C(=O)[C@@H]2CC[C@@H]3C[C@@H]4C[C@@H]4C[C@H](NC(=O)c4cc5cc([C@H](F)P(=O)(O)O)ccc5s4)C(=O)N32)C1 (single isomer, unassigned) [Example 345]
3000 to 30000 | < 100 | CS(=O)(=O)CC1CN(C(=O)[C@@H]2CC[C@@H]3C[C@H]4C[C@H]4C[C@H](NC(=O)c4cc5cc(C(F)P(=O)(O)O)ccc5s4)C(=O)N32)C1 (stereo partly drawn) [Example 333, (fluoro(2-(((3S,6S,7aS,8aR,9aR)-3-(3-((methylsulfonyl)methyl)azetidine-1-carbonyl)-5-oxodecahydro-1H-cyclopropa[d]pyrrolo[1,2-a]azocin-6-yl)carbamoyl)benzo[b]thiophen-5-yl)methyl)phosphonic acid]
3000 to 30000 | < 100 | Cn1ccnc1N1C[C@H](NC(=O)[C@@H]2CC[C@@H]3C[C@H]4C[C@H]4C[C@H](NC(=O)c4cc5cc(C(F)P(=O)(O)O)ccc5s4)C(=O)N32)[C@@H](F)C1 (stereo partly drawn) [Example 367, (fluoro(2-(((3S,6S,7aS,8aR,9aR)-3-(((3S,4S)-4-fluoro-1-(1-methyl-1H-imidazol-2-yl)pyrrolidin-3-yl)carbamoyl)-5-oxodecahydro-1H-cyclopropa[d]pyrrolo[1,2-a]azocin-6-yl)carbamoyl)benzo[b]thiophen-5-yl)methyl)phosphonic acid]
300 to 3000 | 100 to 1000 | Cn1ccc2cncc(C3CN(C(=O)[C@@H]4CC[C@@H]5C[C@H]6C[C@H]6C[C@H](NC(=O)c6cc7cc([C@@H](F)P(=O)(O)O)ccc7s6)C(=O)N54)C3)c21 [Example 427, ((S)-fluoro(2-(((3S,6S,7aS,8aR,9aR)-3-(3-(1-methyl-1H-pyrrolo[3,2-c]pyridin-7-yl)azetidine-1-carbonyl)-5-oxodecahydro-1H-cyclopropa[d]pyrrolo[1,2-a]azocin-6-yl)carbamoyl)benzo[b]thiophen-5-yl)methyl)phosphonic acid]
3000 to 30000 | < 100 | Cc1cccc(C2CN(C(=O)[C@@H]3CC[C@@H]4C[C@@H]5C[C@@H]5C[C@H](NC(=O)c5cc6cc([C@H](F)P(=O)(O)O)ccc6s5)C(=O)N43)C2)n1 (single isomer, unassigned) [Example 370]
3000 to 30000 | 100 to 1000 | Cc1nnc(C2CN(C(=O)[C@@H]3CC[C@@H]4C[C@H]5C[C@H]5C[C@H](NC(=O)c5cc6cc(C(F)P(=O)(O)O)ccc6s5)C(=O)N43)C2)o1 (stereo partly drawn) [Example 327, (fluoro(2-(((3S,6S,7aS,8aR,9aR)-3-(3-(5-methyl-1,3,4-oxadiazol-2-yl)azetidine-1-carbonyl)-5-oxodecahydro-1H-cyclopropa[d]pyrrolo[1,2-a]azocin-6-yl)carbamoyl)benzo[b]thiophen-5-yl)methyl)phosphonic acid]
3000 to 30000 | < 100 | O=C(N[C@H]1C[C@@H]2C[C@@H]2C[C@H]2CC[C@@H](C(=O)N3CC(c4ncco4)C3)N2C1=O)c1cc2cc(C(F)P(=O)(O)O)ccc2s1 (stereo partly drawn) [Example 322, (fluoro(2-(((3S,6S,7aS,8aR,9aR)-3-(3-(oxazol-2-yl)azetidine-1-carbonyl)-5-oxodecahydro-1H-cyclopropa[d]pyrrolo[1,2-a]azocin-6-yl)carbamoyl)benzo[b]thiophen-5-yl)methyl)phosphonic acid]
3000 to 30000 | < 100 | Cc1cccnc1C1CN(C(=O)[C@@H]2CC[C@@H]3C[C@@H]4C[C@@H]4C[C@H](NC(=O)c4cc5cc(C(F)(F)P(=O)(O)O)ccc5s4)C(=O)N32)C1 [Compound 58, (difluoro(2-(((3S,6S,7aR,8aS,9aR)-3-(3-(3-methylpyridin-2-yl)azetidine-1-carbonyl)-5-oxodecahydro-1H-cyclopropa[d]pyrrolo[1,2-a]azocin-6-yl)carbamoyl)benzo[b]thiophen-5-yl)methyl)phosphonic acid]
